From patent US20190083482A1, “PRMT5 INHIBITORS AND USES THEREOF” (Epizyme, Inc., priority 2017, published 2019)

Legend:
Z-138 cell line = assay: Z-138 Proliferation Assay (Cell Titer Glo); type: cell-based; conditions: Homo sapiens, 120 h; Z-138 cells, 5 days incubation, top concentration 20 μM
Text: Z-138 Proliferation Assay
Z-138 suspension cells were purchased from ATCC (American Type Culture Collection, Manassas, Va.). RPMI/Glutamax medium, penicillin-streptomycin, heat inactivated fetal bovine serum were purchased from Life Technologies, Grand Island, N.Y., USA. V-bottom polypropylene 384-well plates were purchased from Greiner Bio-One, Monroe, N.C., USA. Cell culture 384-well white opaque plates were purchased from Perkin Elmer, Waltham, Mass., USA. Cell-Titer Glo® was purchased from Promega Corporation, Madison, Wis., USA. SpectraMax M5 plate reader was purchased from Molecular Devices LLC, Sunnyvale, Calif., USA.
Z-138 suspension cells were maintained in growth medium (RPMI 1640 supplemented with 10% v/v heat inactivated fetal bovine serum and cultured at 37° C. under 5% CO2. Under assay conditions, cells were incubated in assay medium (RPMI 1640 supplemented with 10% v/v heat inactivated fetal bovine serum and 100 units/mL penicillin-streptomycin) at 37° C. under 5% CO2.
For the assessment of the effect of compounds on the proliferation of the Z-138 cell line, exponentially growing cells were plated in 384-well white opaque plates at a density of 10,000 cells/ml in a final volume of 50 μl of assay medium. A compound source plate was prepared by performing triplicate nine-point 3-fold serial dilutions in DMSO, beginning at 10 mM (final top concentration of compound in the assay was 20 μM and the DMSO was 0.2%). A 100 nL aliquot from the compound stock plate was added to its respective well in the cell plate. […] After addition of compounds, assay plates were incubated for 5 days at 37° C., 5% CO2, relative humidity >90%. Cell viability was measured by quantitation of ATP present in the cell cultures, adding 35 μl of Cell Titer Glo® reagent to the cell plates. Luminescence was read in the SpectraMax M5 microplate reader. The concentration of compound inhibiting cell viability by 50% was determined using a 4-parametric fit of the normalized dose response curves.

PRMT5/MEP50 = biological target: T1, PRMT5/MEP50 (Homo sapiens, UniProt O14744); assay: PRMT5 Biochemical Assay (PRMT5/MEP50 enzyme assay on peptide substrate, 3H-SAM Flashplate); conditions: PRMT5/MEP50 4 nM, 3H-SAM 75 nM, peptide 40 nM
T1 construct: Flag-PRMT5; made in house; host or cells: Spodoptera frugiperda (SF9) insect cells, baculovirus
Text: S-adenosylmethionine (SAM), S-adenosylhomocysteine (SAH), bicine, KCl, Tween20, dimethylsulfoxide (DMSO), bovine skin gelatin (BSG), and Tris(2-carboxyethyl)phosphine hydrochloride solution (TCEP) were purchased from Sigma-Aldrich at the highest level of purity possible. ^3H-SAM was purchase from American Radiolabeled Chemicals with a specific activity of 80 C1/mmol. 384-well streptavidin Flashplates were purchased from PerkinElmer.
Peptide representative of human histone H4 residues 1-15 was synthesized with a C-terminal linker-affinity tag motif and a C-terminal amide cap by 21st Century Biochemicals.
The amplified genes were sublconed into pENTR/D/TEV (Life Technologies) and subsequently transferred by Gateway™ attL×attR recombination to pDEST8 baculvirus expression vector (Life Technologies).
Protein over-expression was accomplished by infecting exponentially growing Spodoptera frugiperda (SF9) cell culture at 1.2×10^6 cell/ml with a 5000 fold dilution of BIIC stock. Infections were carried out at 27° C. for 72 hours, harvested by centrifugation, and stored at −80° C. for purification.
Flag-PRMT5/6His-MeP50 was eluted with 300 mM Imidazole in the same buffer.
General Procedure for PRMT5/MEP50 Enzyme Assays on Peptide Substrates.
The assays were all performed in a buffer consisting of 20 mM Bicine (pH=7.6), 1 mM TCEP, 0.005% BSG, and 0.002% Tween20, prepared on the day of use. […] DMSO (1 ul) was added to Columns 11, 12, 23, 24, rows A-H for the maximum signal control and 1 ul of SAH, a known product and inhibitor of PRMT5/MEP50, was added to columns 11, 12, 23, 24, rows I-P for the minimum signal control. A cocktail (40 ul) containing the PRMT5/MEP50 enzyme and the peptide was added by Multidrop Combi (Thermo-Fisher). The compounds were allowed to incubate with PRMT5/MEP50 for 30 min at 25 degrees Celsius, then a cocktail (10 ul) containing ^3H-SAM was added to initiate the reaction (final volume=51 ul). […] The assays were stopped by the addition of non-radioactive SAM (10 ul) to a final concentration of 600 uM, which dilutes the ^3H-SAM to a level where its incorporation into the peptide substrate is no longer detectable. 50 ul of the reaction in the 384-well polypropylene plate was then transferred to a 384-well Flashplate and the biotinylated peptides were allowed to bind to the streptavidin surface for at least 1 hour before being washed three times with 0.1% Tween20 in a Biotek ELx405 plate washer. The plates were then read in a PerkinElmer TopCount plate reader to measure the quantity of ^3H-labeled peptide bound to the Flashplate surface, measured as disintegrations per minute (dpm) or alternatively, referred to as counts per minute (cpm).
Where dpm=disintegrations per minute, cmpd=signal in assay well, and min and max are the respective minimum and maximum signal controls.
Where top and bottom are the normally allowed to float, but may be fixed at 100 or 0 respectively in a 3-parameter fit. The Hill Coefficient normally allowed to float but may also be fixed at 1 in a 3-parameter fit. Y is the % inhibition and X is the compound concentration.

[1] = tested on: symmetric di-methyl arginine in Z-138 cells; assay: Z-138 Methylation Assay (In Cell Western for symmetric di-methyl arginine); type: cell-based; conditions: Homo sapiens, 96 hours incubation, read-out: ICW EC50
Text: Z-138 suspension cells were purchased from ATCC (American Type Culture Collection, Manassas, Va.). RPMI/Glutamax medium, penicillin-streptomycin, heat inactivated fetal bovine serum, and D-PBS were purchased from Life Technologies, Grand Island, N.Y., USA. Odyssey blocking buffer, 800 CW goat anti-rabbit IgG (H+L) antibody, and Licor Odyssey infrared scanner were purchased from Licor Biosciences, Lincoln, Nebr., USA. Symmetric di-methyl arginine antibody was purchased from EMD Millipore, Billerica, Mass., USA. 16% Paraformaldehyde was purchased from Electron Microscopy Sciences, Hatfield, Pa., USA.
Z-138 suspension cells were maintained in growth medium (RPMI 1640 supplemented with 10% v/v heat inactivated fetal bovine serum and 100 units/mL penicillin-streptomycin) and cultured at 37° C. under 5% CO2.
Cell Treatment, in Cell Western (ICW) for Detection of Symmetric Di-Methyl Arginine and DNA Content.
Z-138 cells were seeded in assay medium at a concentration of 50,000 cells per mL to a 384-well cell culture plate with 50 μL per well. Compound (100 nL) from 384 well source plates was added directly to 384 well cell plate. Plates were incubated at 37° C., 5% CO2 for 96 hours. After four days of incubation, 40 μL of cells from incubated plates were added to poly-D-lysine coated 384 well culture plates (BD Biosciences 356697). Plates were incubated at room temperature for 30 minutes then incubated at 37° C., 5% CO2 for 5 hours. After the incubation, 40 μL per well of 8% paraformaldehyde in PBS (16% paraformaldahyde was diluted to 8% in PBS) was added to each plate and incubated for 30 minutes. Plates were transferred to a Biotek 405 plate washer and washed 5 times with 100 μL per well of wash buffer (1×PBS with 0.1% Triton X-100 (v/v)). Next 30 μL per well of Odyssey blocking buffer were added to each plate and incubated 1 hour at room temperature. Blocking buffer was removed and 20 μL per well of primary antibody was added (symmetric di-methyl arginine diluted 1:100 in Odyssey buffer with 0.1% Tween 20 (v/v)) and plates were incubated overnight (16 hours) at 4° C. Plates were washed 5 times with 100 μL per well of wash buffer. Next 20 μL per well of secondary antibody was added (1:200 800 CW goat anti-rabbit IgG (H+L) antibody, 1:1000 DRAQ5 (Biostatus limited) in Odyssey buffer with 0.1% Tween 20 (v/v)) and incubated for 1 hour at room temperature. The plates were washed 5 times with 100 μL per well wash buffer then 1 time with 100 μL per well of water. Plates were allowed to dry at room temperature then imaged on the Licor Odyssey machine which measures integrated intensity at 700 nm and 800 nm wavelengths. Both 700 and 800 channels were scanned.
First, the ratio for each well was determined by:
Each plate included fourteen control wells of DMSO only treatment (minimum inhibition) as well as fourteen control wells for maximum inhibition treated with 3 μM of a reference compound (Background wells). The average of the ratio values for each control type was calculated and used to determine the percent inhibition for each test well in the plate. Reference compound was serially diluted three-fold in DMSO for a total of nine test concentrations, beginning at 3 μM. Percent inhibition was determined and IC50 curves were generated using triplicate wells per concentration of compound.

T1 sequence (O14744 with tags, fused parts or gaps): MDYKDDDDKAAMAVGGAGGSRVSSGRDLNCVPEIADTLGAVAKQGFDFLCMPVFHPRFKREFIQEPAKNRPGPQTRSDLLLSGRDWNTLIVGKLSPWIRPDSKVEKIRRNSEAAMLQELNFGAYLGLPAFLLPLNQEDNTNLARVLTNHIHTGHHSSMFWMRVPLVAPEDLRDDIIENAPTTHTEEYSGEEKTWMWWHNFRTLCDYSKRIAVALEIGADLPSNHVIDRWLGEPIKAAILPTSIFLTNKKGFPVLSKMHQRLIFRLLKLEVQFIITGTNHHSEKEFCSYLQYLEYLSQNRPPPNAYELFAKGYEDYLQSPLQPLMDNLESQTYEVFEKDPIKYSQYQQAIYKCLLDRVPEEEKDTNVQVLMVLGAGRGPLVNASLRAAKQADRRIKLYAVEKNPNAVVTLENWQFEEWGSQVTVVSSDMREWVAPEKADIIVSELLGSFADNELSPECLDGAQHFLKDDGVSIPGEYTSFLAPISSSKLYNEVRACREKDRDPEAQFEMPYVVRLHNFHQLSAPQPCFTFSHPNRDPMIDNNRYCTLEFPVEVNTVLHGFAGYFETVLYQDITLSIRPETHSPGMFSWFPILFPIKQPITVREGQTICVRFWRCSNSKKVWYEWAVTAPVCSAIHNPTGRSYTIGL
T1 sequence (Q9BQA1 with tags, fused parts or gaps partner limits assumed): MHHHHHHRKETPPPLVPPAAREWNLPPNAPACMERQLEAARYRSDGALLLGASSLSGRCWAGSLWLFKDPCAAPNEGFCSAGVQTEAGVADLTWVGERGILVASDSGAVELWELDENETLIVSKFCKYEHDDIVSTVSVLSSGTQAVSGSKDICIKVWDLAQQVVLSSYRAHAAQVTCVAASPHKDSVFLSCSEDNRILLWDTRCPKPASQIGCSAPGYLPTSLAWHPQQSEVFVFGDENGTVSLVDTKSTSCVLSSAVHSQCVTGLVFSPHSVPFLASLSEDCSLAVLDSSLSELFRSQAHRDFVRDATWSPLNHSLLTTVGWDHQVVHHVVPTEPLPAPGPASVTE

Row | IC50 (PRMT5/MEP50) [µM] | EC50 [1] [µM] | Structure (SMILES) | EC50 (Z-138 cell line) [µM]
1 | – | – | Cn1ncc2ccc(OCC(=O)NCC(O)CN3CCc4ccccc4C3)cc21 (stereo not shown) [Compound 23, N-(3-(3,4-dihydroisoquinolin-2(1H)-yl)-2-hydroxypropyl)-2-((1-methyl-1H-indazol-6-yl)oxy)acetamide] | 1 to 10
2 | < 0.1 | 0.101 to 1 | Cn1cnc(-c2ccccc2OCC(=O)NCC(O)CN2CCc3ccccc3C2)c1 (stereo not shown) [Compound 153] | 10 to 50
3 | < 0.1 | < 0.1 | CN(c1ccccc1OCC(=O)NCC(O)CN1CCc2ccccc2C1)S(C)(=O)=O (stereo not shown) [Compound 155] | 1 to 10
4 | < 0.1 | 0.101 to 1 | Cc1nn(C)c2cccc(OCC(=O)NCC(O)CN3CCc4ccccc4C3)c12 (stereo not shown) [Compound 158] | 1 to 10
5 | < 0.1 | < 0.1 | Cn1ncc2ccc(OCC(=O)NC[C@H](O)CN3CCc4ccccc4C3)cc21 [Compound 159] | 1 to 10
6 | – | 1 to 10 | Cn1ncc2ccc(OCC(=O)NC[C@@H](O)CN3CCc4ccccc4C3)cc21 [Compound 160] | > 20
7 | – | 1 to 10 | O=C(COc1cncc(C(=O)N2CCOCC2)c1)NCC(O)CN1CCc2ccccc2C1 (stereo not shown) [Compound 161] | > 20
8 | – | 1 to 10 | CC(=O)Nc1ccncc1OCC(=O)NCC(O)CN1CCc2ccccc2C1 (stereo not shown) [Compound 162] | > 20
9 | < 0.1 | 0.101 to 1 | Cc1cn(C)c2cccc(OCC(=O)NC[C@H](O)CN3CCc4ccccc4C3)c12 [Compound 163] | 1 to 10
10 | < 0.1 | < 0.1 | Cc1cn(C)c2cccc(OCC(=O)NC[C@@H](O)CN3CCc4ccccc4C3)c12 [Compound 164] | 0.101 to 1
11 | – | 0.101 to 1 | O=C(NCC(O)CN1CCc2ccccc2C1)C(O)c1ccccc1 (stereo not shown) [Compound 165] | > 20
12 | < 0.1 | < 0.1 | Nc1ncnc2c(OCC(=O)NCC(O)CN3CCc4ccccc4C3)cccc12 (stereo not shown) [Compound 168] | 1 to 10
13 | < 0.1 | < 0.1 | CN(C)c1cccc(OCC(=O)NCC(O)CN2CCc3ccccc3C2)c1S(N)(=O)=O (stereo not shown) [Compound 169] | 1 to 10
14 | < 0.1 | 0.101 to 1 | CC(NC(=O)COc1ccccc1S(N)(=O)=O)C(O)CN1CCc2ccccc2C1 (stereo not shown) [Compound 170] | 10 to 50
15 | – | 0.101 to 1 | O=C(COc1cncc(CN2CCOCC2)c1)NCC(O)CN1CCc2ccccc2C1 (stereo not shown) [Compound 172] | 10 to 50
16 | – | 0.101 to 1 | O=C(Cc1ccc2c(c1)OCO2)NC[C@H](O)CN1CCc2ccccc2C1 [Compound 174] | > 20
17 | < 0.1 | < 0.1 | O=C(CCc1nc2ccccc2[nH]1)NC[C@H](O)CN1CCc2ccccc2C1 [Compound 175, (S)-3-(1H-benzo[d]imidazol-2-yl)-N-(3-(3,4-dihydroisoquinolin-2(1H)-yl)-2-hydroxypropyl)propanamide] | 0.101 to 1
18 | – | 0.101 to 1 | O=C(NC[C@H](O)CN1CCc2ccccc2C1)C1CNc2ccccc21 (stereo partly shown) [Compound 177] | 10 to 50
19 | – | 0.101 to 1 | O=C(CC1CCc2ccccc21)NC[C@H](O)CN1CCc2ccccc2C1 (stereo partly shown) [Compound 178] | 1 to 10
20 | – | 0.101 to 1 | O=C(CC1Cc2ccccc2C1)NC[C@H](O)CN1CCc2ccccc2C1 [Compound 179] | 10 to 50
21 | < 0.1 | < 0.1 | O=C(COc1cccc2cncnc12)NCC(O)CN1CCc2ccccc2C1 (stereo not shown) [Compound 181] | –
22 | – | 0.101 to 1 | O=C(Cc1c[nH]c2ccccc12)NC[C@H](O)CN1CCc2ccccc2C1 [Compound 182] | –
23 | – | 0.101 to 1 | O=C(NC[C@H](O)CN1CCc2ccccc2C1)C1COc2ccccc2O1 (stereo partly shown) [Compound 183] | –
24 | < 0.1 | – | CN1CCN(c2cccc(OCC(=O)NC[C@@H](O)CN3CCc4ccccc4C3)c2)CC1 [Compound 190] | –
25 | < 0.1 | – | CN(C)CCN(C)S(=O)(=O)c1ccccc1OCC(=O)NC[C@@H](O)CN1CCc2ccccc2C1 [Compound 191] | –
